Assay [1] has as its target T1, Calpain-1 catalytic subunit (Homo sapiens, UniProt P07384).
T1 sequence (P07384 whole entry): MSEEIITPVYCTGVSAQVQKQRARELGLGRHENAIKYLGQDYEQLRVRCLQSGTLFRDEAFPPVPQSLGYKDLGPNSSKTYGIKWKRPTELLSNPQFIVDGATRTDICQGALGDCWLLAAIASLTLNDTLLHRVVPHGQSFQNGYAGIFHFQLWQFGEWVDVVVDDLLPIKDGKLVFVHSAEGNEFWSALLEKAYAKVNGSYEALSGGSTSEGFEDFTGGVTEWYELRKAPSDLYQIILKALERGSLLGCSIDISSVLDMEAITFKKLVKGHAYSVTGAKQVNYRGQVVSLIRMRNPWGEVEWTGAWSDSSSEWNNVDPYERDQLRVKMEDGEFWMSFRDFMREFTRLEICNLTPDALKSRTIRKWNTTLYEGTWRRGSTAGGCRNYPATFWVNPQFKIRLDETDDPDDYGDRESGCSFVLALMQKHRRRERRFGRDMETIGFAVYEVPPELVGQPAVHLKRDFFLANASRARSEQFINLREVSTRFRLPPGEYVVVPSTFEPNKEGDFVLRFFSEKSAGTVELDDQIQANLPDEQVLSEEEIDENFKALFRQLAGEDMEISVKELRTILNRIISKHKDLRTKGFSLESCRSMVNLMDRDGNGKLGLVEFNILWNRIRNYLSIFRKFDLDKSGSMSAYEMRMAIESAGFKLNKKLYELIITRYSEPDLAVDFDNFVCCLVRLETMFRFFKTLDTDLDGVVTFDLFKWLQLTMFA
Kind of assay: Tested for inhibitory activity against calpain; NA means Not active.

Assay [2] addresses T1, Calpain-1 catalytic subunit. Kind of assay: Tested for inhibitory activity against calpain.
The target is the same in assay [3]. Kind of assay: Tested for inhibitory activity against calpain.
The next assay deals with Cathepsin B (Bos taurus, UniProt P07688). Kind of assay: Tested for inhibitory activity against bovine cathepsin B.

Where a SMILES comes first, the peptide text is derived from it. [ ]: non-standard residue; d: D form. The star is where a group is joined. ξ: configuration not given here. NMeF = CN[C@@H](Cc1ccccc1)C(=O)O; Cbz = O=C(OCc1ccccc1)*; ξV = CC(C)C(N)C(=O)O

In general, Ki refers to the dissociation constant of the complex between target and ligand, obtained from inhibition or displacement. A higher Ki goes with a looser hold on the target.

Turning to `CC(C)C(NC(=O)OCc1ccccc1)C(=O)N1C(=O)C[C@H](O)[C@@H]1Cc1ccccc1` (stereo not given in full), the Ki entry in assay [1] is “Not Active”. Consider `CC(C)C(NC(=O)OCc1ccccc1)C(=O)N(C)[C@H](C=O)Cc1ccccc1` (stereo not given in full) (Cbz-[ξV]-[NMeF]-aldehyde), for which, in assay [2], affinity was put at a Ki of 400 nM.

For the compound `CC(C)C(NC(=O)OCc1ccccc1)C(=O)N1CC[C@@H](O)[C@@H]1Cc1ccccc1` (stereo not given in full), the Ki result in assay [1] is “Not Active”.

In turn, `O=C1c2ccccc2C(=O)N1[C@H]1CCC[C@H]2O[C@@H](O)[C@H](Cc3ccccc3)N2C1=O.O=C1c2ccccc2C(=O)N1[C@H]1CCC[C@H]2O[C@H](O)[C@@H](Cc3ccccc3)N2C1=O` gave an inhibitory constant (Ki) in assay [2] of 3200 nM.

With `CC(=O)O[C@@H]1OCN(C(=O)C(NC(=O)OCc2ccccc2)C(C)C)[C@H]1Cc1ccccc1` (stereo not given in full), the inhibition constant Ki in assay [3] was determined as 2000 nM. For the compound `CC(C)C(NC(=O)OCc1ccccc1)C(=O)N1CO[C@@H](O)[C@@H]1Cc1ccccc1` (stereo not given in full), the Ki in assay [2] turned out to be 33 nM; on Cathepsin B, 120 nM. Regarding `O=C(N[C@H]1CCC[C@H]2O[C@@H](O)[C@H](Cc3ccccc3)N2C1=O)OCc1ccccc1.O=C(N[C@H]1CCC[C@H]2O[C@H](O)[C@@H](Cc3ccccc3)N2C1=O)OCc1ccccc1`, in assay [2], the Ki came out at 1500 nM.

In the case of `CC(C)C(NC(=O)OCc1ccccc1)C(=O)N(CO)[C@H](C=O)Cc1ccccc1` (stereo not given in full), the inhibition constant Ki in assay [2] came out at 400 nM. On the same count and under the same terms, in the case of `CC(C)[C@@H](NC(=O)OCc1ccccc1)C(=O)N1CCO[C@@H](O)[C@@H]1Cc1ccccc1` it was 56000 nM.

For the origin of these results see ChEMBL document CHEMBL1131841, “Hydroxyoxazolidines as alpha-aminoacetaldehye equivalents: novel inhibitors of calpain” (Bioorg Med Chem Lett, 1999).
